How the values were obtained:
[1] = system: thin sections of petiole, pedicle, peduncle and rachis explants of Jatropha curcas; experiment: Shoot bud induction directly from thin sections of explants (direct organogenesis); type: cell-based; conditions: only BA and Kn alone in the medium
Protocol: The petiole from 2nd to 4th leaf and pedicle, peduncle and rachis from inflorescence before the onset of flowering were selected as explant for the present study. Explants were initially washed in running tap water for 5 min and followed by wash in chlorohexidine surgical wash (two drops in 100 ml of distilled water) for 10 min to remove the adhering particles on the surface. The explants were surface sterilized in 0.1% HgCl2 for 10 min followed by 3 washes using sterilized distilled water.
The chemicals used in the present study were purchased from Duchefa Biochemie, Haarlem, The Netherlands and Sigma Aldrich, Inc., St Louis, USA. The culture media composed of MS basal salts, B5 vitamins, 3% sucrose and 0.8% agar as solidifying agent. The pH of the media is adjusted to 5.6-5.8 before autoclaving. All the cultures were incubated at 25±2° C. with 16 hr light/8 hr dark photoperiod conditions at a light intensity of 150 μEm^−2s^−1. The culture conditions are same throughout the stages of organogenesis.
The thin sections of all the explants (petiole, pedicle, peduncle and rachis) and the calli initiated from different explants (petiole, pedicle, […]; […]).
Thin sections of explants placed on shoot induction medium expanded and bended towards up and started to produce adventitious buds from the explants within 2 weeks. […]

[2] = system: elongated shoots of Jatropha curcas; experiment: Maturation of elongated shoots on maturation medium; type: cell-based; conditions: BA present in maturation medium; abnormal shoot production and in vitro flowering
Protocol: The chemicals used in the present study were purchased from Duchefa Biochemie, Haarlem, The Netherlands and Sigma Aldrich, Inc., St Louis, USA. The culture media composed of MS basal salts, B5 vitamins, 3% sucrose and 0.8% agar as solidifying agent. The pH of the media is adjusted to 5.6-5.8 before autoclaving. All the cultures were incubated at 25±2° C. with 16 hr light/8 hr dark photoperiod conditions at a light intensity of 150 μEm^−2s^−1. The culture conditions are same throughout the stages of organogenesis. […] Elongated shoots were separated from the clump and cultured on the Maturation medium containing Kn (1.17 μM), AdSO4 (135.75 μM), GA3 (0.73 μM) IBA (0.49 μM) and casein hydrolysate (100 mg/l). Well elongated shoots were separated carefully from the clumps and transferred to maturation medium to induce physiological maturity. Most of the shoots culture in the maturation medium reached maturity within 3 weeks whereas some shoots still need additional 3 weeks and were cultured in the same medium to bring physiological maturity.

[3] = system: petiole explant of Jatropha curcas; conditions: medium containing 2.27 μM TDZ; Kumar et al. (2011b); cited from earlier work

c1ccc(CNc2ncnc3nc[nH]c23)cc1 [BA, 6-benzylaminopurine]
effect on shoot bud induction from the tested explants [1]: no effect | effect of presence in maturation medium on shoot maturation [2]: hindered maturation

c1coc(CNc2ncnc3[nH]cnc23)c1 [Kn, kinetin]
effect on shoot bud induction from the tested explants [1]: no effect

O=C(Nc1ccccc1)Nc1cnns1 [TDZ, thidiazuron]
average shoots per 0.5 cm length petiole explant [3]: 4.98 shoots per explant | response with petiole explant [3]: 57.61%

Source: US9699976B2, “Direct and indirect organogenesis of Jatropha” (TEMASEK LIFE SCIENCES LABORATORY LTD., priority 2012, dated 2017)
